Values after ≈ are worked out from the molar mass of the structure shown. Read-outs that look alike come from different tables or passages of the source. Blank lines part the entries; values can stand above or below the compound they belong to.
What was measured:
[1] = system: Neisseria meningitidis isolates; experiment: Minimum inhibitory concentration, macro broth dilution, Neisseria meningitidis isolates (Test 2); assay type: cell-based; details: 24 h
Method: Compounds were tested against five isolates of Neisseria meningitidis. […] The test procedure used was the macro broth dilutuon method in duplicate outlined by J. C. Sherris on pages 414-415. The test compounds and controls were prepared as in Test 1. Ampicillin and penicillin standards were initially diluted as described by J. C. Sherris on pages 411-412 followed by dilution with Mueller-Hinton broth.

[2] = system: Neisseria gonorrhoeae isolates; experiment: Minimum inhibitory concentration, agar dilution, Neisseria gonorrhoeae isolates (Test 3); details: 24 h, read-out: Minimum Inhibitory Concentration
[3] = system: Staphylococcus aureus isolates; experiment: Minimum inhibitory concentration, macro broth dilution, Staphylococcus aureus isolates (Test 1); assay type: cell-based; details: for MIC: Staphylococcus aureus, 24 h, read-out: Minimum Inhibitory Concentration
Method: Compounds were tested against five isolates of Staphylococcus aureus. The bacteria used were isolated from patients at the Walter Reed Army Medical Center, Washington, D.C. […] Each compound was dissolved in Dimethyl Sulfoxide (DMSO) (12.8 mg/ml) and then diluted with Mueller-Hinton broth to obtain the desired dilutions. Tubes containing the hightest quantities of DMSO with no compound present were run as controls.

[4] = system: Mycobacterium smegmatis strains; experiment: Minimum inhibitory concentration, Mycobacterium smegmatis strains (Test 4); assay type: cell-based; details: Mycolicibacterium smegmatis
Method: Compounds were tested against three strains of Mycobacterium smegmatis. The test procedure used was as mentioned by N. E. Morrison [Int. J. of Leprosy 39:34-43 (1971)]. The strain numbers refer to Mycobacterium smegmatis ATCC 607 (I), a DDS-resistant daughter strain (II), and a Rifampin-resistant daughter strain (III), respectively.

[5] = system: Plasmodium berghei KBG 173; experiment: In vivo antimalarial activity against Plasmodium berghei in mice (Test 5); set-up: key: C: Mice surviving 60 days are considered cured; active: Activity is defined as a 100% increase in the mean survival time of the treated mice compared to the control group; details: C (n/5) = cured of five
Method: Compounds were tested against Plasmodium berghei KBG 173 malaria in mice following the procedure described by T. S. Osdene, P. B. Russell, and L. Rane [J. Med. Chem. 10:431-434 (1967)]. Five mice were tested at each dosage level. Mice surviving 60 days are considered cured. Toxicity is defined as a decrease in the mean survival time of the treated mice as compared to the control group. Activity is defined as a 100% increase in the mean survival time of the treated mice compared to the control group.

[6] = Neisseria meningitidis isolate 7957, read-out: Minimum Inhibitory Concentration
[7] = Neisseria meningitidis isolate 7990, read-out: Minimum Inhibitory Concentration
[8] = Neisseria meningitidis isolate 8005, read-out: Minimum Inhibitory Concentration
[9] = Neisseria meningitidis isolate 8006, read-out: Minimum Inhibitory Concentration
[10] = Neisseria meningitidis isolate 8011, read-out: Minimum Inhibitory Concentration
[11] = Staphylococcus aureus isolate V, 24 hours
[12] = Staphylococcus aureus isolate II, 24 hours
[13] = Staphylococcus aureus isolate III, 24 hours
[14] = Staphylococcus aureus isolate IV, 24 hours
[15] = 24 h, DDS-resistant daughter strain (II)
[16] = 24 h, Rifampin-resistant daughter strain (III)
[17] = ATCC607, 24 h, Mycobacterium smegmatis ATCC 607 (I)
[18] = read-out: Minimum Inhibitory Concentration, Neisseria meningitidis isolate 7957
[19] = read-out: Minimum Inhibitory Concentration, Neisseria meningitidis isolate 7990
[20] = read-out: Minimum Inhibitory Concentration, Neisseria meningitidis isolate 8006
[21] = read-out: Minimum Inhibitory Concentration, Neisseria meningitidis isolate 8011

MIC [1, 6]: 0.008 µg/mL (≈ 0.0229 µM)
MIC [1, 7]: 0.008 µg/mL (≈ 0.0229 µM)
MIC [1, 8]: 0.008 µg/mL (≈ 0.0229 µM)
MIC [1, 9]: 0.016 µg/mL (≈ 0.0458 µM)
MIC [1, 10]: 0.016 µg/mL (≈ 0.0458 µM)
Structure (SMILES): CC1(C)S[C@@H]2[C@H](NC(=O)[C@H](N)c3ccccc3)C(=O)N2[C@H]1C(=O)O [Ampicillin, reference compound]

Structure (SMILES): CC(=NNC(=S)N1CCCCCC1)c1ccc2ccccc2n1 [Compound 3F, 1-Azacycloheptane-1-thiocarboxylic Acid 2-[1-(2-quinolyl)ethylidene]-hydrazide]
MIC [2]: 0.25 to 0.5 µg/mL (≈ 0.766 to 1.53 µM)
Minimum Inhibitory Concentration [3, 11]: 16 µg/mL
MIC [3, 12]: 16 µg/mL (≈ 49 µM)
MIC [3, 13]: 16 µg/mL (≈ 49 µM)
MIC [3, 14]: 16 µg/mL (≈ 49 µM)
MIC [1, 6]: < 0.062 µg/mL
MIC [1, 7]: 0.125 µg/mL (≈ 0.383 µM)
MIC [1, 8]: 0.25 µg/mL (≈ 0.766 µM)
MIC [1, 9]: 0.25 µg/mL (≈ 0.766 µM)
MIC [1, 10]: 0.25 µg/mL (≈ 0.766 µM)
MIC [4, 15]: 15 µg/mL (≈ 45.9 µM)
MIC [4, 16]: 10 µg/mL (≈ 30.6 µM)
MIC [4, 17]: 2.5 µg/mL (≈ 7.66 µM)

Structure (SMILES): CC(=NNC(=S)N1CC2CCC(CC2)C1)c1ccc2ccccc2n1 [Compound 3G, 3-Azabicyclo[3.2.2]none-3-thiocarboxylic acid 2-[1-(2-quinolyl)ethylidene]hydrazide]
MIC [2]: 0.5 to 1 µg/mL (≈ 1.42 to 2.84 µM)
In vivo Antimalarial Activity ([5]; 160 mg/kg): active
Minimum Inhibitory Concentration [3, 12]: 16 µg/mL
Minimum Inhibitory Concentration [3, 13]: 16 µg/mL
Minimum Inhibitory Concentration [3, 14]: 16 µg/mL
Minimum Inhibitory Concentration [3, 11]: 16 µg/mL
MIC [3]: 16 µg/mL (≈ 45.4 µM)
MIC [1, 18]: 0.125 µg/mL (≈ 0.355 µM)
MIC [1, 19]: 1 µg/mL (≈ 2.84 µM)
MIC ([1]; read-out: Minimum Inhibitory Concentration, Neisseria meningitidis isolate 8005): 1 µg/mL (≈ 2.84 µM)
MIC [1, 20]: 0.5 µg/mL (≈ 1.42 µM)
MIC [1, 21]: 0.5 µg/mL (≈ 1.42 µM)
MIC [4, 15]: 15 µg/mL (≈ 42.6 µM)
MIC [4, 16]: 10 µg/mL (≈ 28.4 µM)
MIC [4, 17]: 4 µg/mL (≈ 11.3 µM)

Structure (SMILES): CC(=NNC(=S)N1CCN(c2ccccn2)CC1)c1ccc2ccccc2n1 [Compound 3H]
MIC [2]: 0.125 to 0.5 µg/mL (≈ 0.32 to 1.28 µM)
Minimum Inhibitory Concentration [3, 11]: 16 µg/mL
MIC [3, 12]: 16 µg/mL (≈ 41 µM)
MIC [3, 13]: 16 µg/mL (≈ 41 µM)
MIC [3, 14]: 16 µg/mL (≈ 41 µM)
MIC [1, 6]: > 1 µg/mL
MIC [1, 7]: > 1 µg/mL
MIC [1, 8]: > 1 µg/mL
MIC [1, 9]: > 1 µg/mL
MIC [1, 10]: > 1 µg/mL
MIC [4, 15]: 10 µg/mL (≈ 25.6 µM)
MIC [4, 16]: 5 µg/mL (≈ 12.8 µM)
MIC [4, 17]: 2.5 µg/mL (≈ 6.4 µM)

Structure (SMILES): CC(=NNC(=S)N1CCCC1)c1ccc2ccccc2n1 [Compound 3I, Pyrrolidine-1-thiocarboxylic acid 2-[1-(2-quinolyl)ethylidene]hydrazide]
MIC [2]: 0.125 to 0.25 µg/mL (≈ 0.419 to 0.838 µM)
MIC ([3]; Staphylococcus aureus isolate I, 24 hours): ≤ 0.25 µg/mL
MIC [3, 14]: ≤ 0.25 µg/mL
MIC [3, 11]: ≤ 0.25 µg/mL
MIC [1, 6]: 0.062 µg/mL (≈ 0.208 µM)
MIC [1, 7]: 0.125 µg/mL (≈ 0.419 µM)
MIC [1, 8]: 0.125 µg/mL (≈ 0.419 µM)
MIC [1, 9]: 0.125 µg/mL (≈ 0.419 µM)
MIC [1, 10]: 0.125 µg/mL (≈ 0.419 µM)
MIC [4, 15]: 3 µg/mL (≈ 10.1 µM)
MIC [4, 16]: 1.5 µg/mL (≈ 5.03 µM)
MIC [4, 17]: 0.6 µg/mL (≈ 2.01 µM)

Structure (SMILES): CCCNC(=S)NN=C(C)c1ccc2ccccc2n1 [Compound 3J, I-Propylaminothiocarboxylic acid 2-[1-(2-quinolyl)ethylidene]hydrazide]
MIC [4, 15]: 4 µg/mL (≈ 14 µM)
MIC [4, 16]: 2 µg/mL (≈ 6.98 µM)
MIC [4, 17]: 1 µg/mL (≈ 3.49 µM)

Structure (SMILES): CC(=NNC(=S)N(CC(C)C)CC(C)C)c1ccc2ccccc2n1 [Compound 3K, Diisobutylaminothiocarboxylic acid 2-[1-(2-quinolyl)ethylidene]hydrazide]
MIC [2]: > 1 µg/mL
In vivo Antimalarial Activity ([5]; 320 mg/kg): active
In vivo Antimalarial Activity ([5]; 640 mg/kg): active
Minimum Inhibitory Concentration [3, 11]: 16 µg/mL
MIC [3, 12]: 16 µg/mL (≈ 44.9 µM)
MIC [3, 13]: 16 µg/mL (≈ 44.9 µM)
MIC [3, 14]: 16 µg/mL (≈ 44.9 µM)
MIC [1, 6]: 0.125 µg/mL (≈ 0.351 µM)
MIC [1, 7]: 0.5 µg/mL (≈ 1.4 µM)
MIC [1, 8]: 0.5 µg/mL (≈ 1.4 µM)
MIC [1, 9]: 1 µg/mL (≈ 2.8 µM)
MIC [1, 10]: 0.5 µg/mL (≈ 1.4 µM)
MIC [4, 15]: > 50 µg/mL
MIC [4, 16]: > 50 µg/mL
MIC [4, 17]: 10 µg/mL (≈ 28 µM)

Structure (SMILES): Nc1ccc(S(=O)(=O)c2ccc(N)cc2)cc1 [DDS, reference compound]
MIC [4, 15]: 400 µg/mL (≈ 1610 µM)
MIC [4, 17]: 2 µg/mL (≈ 8.05 µM)

Structure (SMILES): CC1(C)S[C@@H]2[C@H](NC(=O)Cc3ccccc3)C(=O)N2[C@H]1C(=O)O [Penicillin, reference compound]
MIC [2]: 0.062 to 16 µg/mL (≈ 0.185 to 47.8 µM)
MIC [1, 18]: 0.031 µg/mL (≈ 0.0927 µM)
MIC [1, 19]: 0.031 µg/mL (≈ 0.0927 µM)
MIC [1, 20]: 0.031 µg/mL (≈ 0.0927 µM)
MIC [1, 21]: 0.031 µg/mL (≈ 0.0927 µM)

Structure (SMILES): CO[C@H]1/C=C/O[C@@]2(C)Oc3c(C)c(O)c4c(O)c(c(/C=N/N5CCN(C)CC5)c(O)c4c3C2=O)NC(=O)/C(C)=C\C=C\[C@H](C)[C@H](O)[C@@H](C)[C@@H](O)[C@@H](C)[C@H](OC(C)=O)[C@@H]1C [Rifampin, reference compound]
MIC [4, 16]: 250 µg/mL (≈ 304 µM)
MIC [4, 17]: 1 µg/mL (≈ 1.22 µM)

Source: patent US4440771A, “2-Acetyl quinoline thiosemicarbazones useful in treatment of gonorrhea, malaria or bacterial infections” (The United States of America as represented by the …, priority 1982, dated 1984)
